According to ChEMBL document CHEMBL1201862, “PubChem BioAssay data set” (2004):
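Interpolation was linear, between the two tested concentrations surrounding the appropriate level; five concentrations were tested over 48 hours in 96-well plates. GI50 is the concentration that inhibits growth by half.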 The source made the active and inactive calls. Rule as the data show it: active = GI50 up to about 1.1 µM and inactive = higher.

Experiments:
Experiment in all cases: growth of human tumour cells (NCI), 48 h
[1] = test system: 786-0
[2] = test system: A498
[3] = test system: A549
[4] = test system: ACHN
[5] = test system: BT-549
[6] = test system: CAKI-1
[7] = test system: CCRF-CEM
[8] = test system: COLO 205
[9] = test system: DU-145
[10] = test system: EKVX
[11] = test system: HCT-116
[12] = test system: HCT-15
[13] = test system: HL-60
[14] = test system: HOP-62
[15] = test system: HOP-92
[16] = test system: HT-29
[17] = test system: Hs-578T
[18] = test system: IGROV-1
[19] = test system: K562
[20] = test system: KM12
[21] = test system: LOX IMVI
[22] = test system: M14
[23] = test system: MCF7
[24] = test system: MDA-MB-231
[25] = test system: MDA-MB-435
[26] = test system: MDA-N
[27] = test system: MOLT-4
[28] = test system: Malme-3M
[29] = test system: NCI-H226
[30] = test system: NCI-H23
[31] = test system: NCI-H460
[32] = test system: NCI-H522
[33] = test system: NCI/ADR-RES
[34] = test system: OVCAR-3
[35] = test system: OVCAR-4
[36] = test system: OVCAR-5
[37] = test system: OVCAR-8
[38] = test system: PC-3
[39] = test system: RPMI-8226
[40] = test system: RXF 393
[41] = test system: SF-268
[42] = test system: SF-295
[43] = test system: SF-539
[44] = test system: SK-MEL-28
[45] = test system: SK-MEL-2
[46] = test system: SK-MEL-5
[47] = test system: SK-OV-3
[48] = test system: SN12C
[49] = test system: SNB-19
[50] = test system: SNB-75
[51] = test system: SW-620
[52] = test system: T47D
[53] = test system: TK-10
[54] = test system: U-251
[55] = test system: UACC-257
[56] = test system: UACC-62
[57] = test system: UO-31
[58] = test system: SR

CC1(C)N=C(N)N=C(N)N1c1cccc(OCc2cccc([N+](=O)[O-])c2)c1
GI50 [1]: 5.78 µM (inactive) | GI50 [2]: 99.5 µM (inactive) | GI50 [3]: 4.18 µM (inactive) | GI50 [4]: > 100 µM (inactive) | GI50 [5]: > 53.1 µM (inactive) | GI50 [6]: > 100 µM (inactive) | GI50 [7]: 5.4 µM (inactive) | GI50 [8]: 9.93 µM (inactive) | GI50 [9]: > 38.5 µM (inactive) | GI50 [10]: > 78.3 µM (inactive) | GI50 [11]: 5.41 µM (inactive) | GI50 [12]: > 100 µM | GI50 [13]: 9.95 µM (inactive) | GI50 [14]: > 76 µM (inactive) | GI50 [15]: > 100 µM (inactive) | GI50 [16]: 6.03 µM (inactive) | GI50 [17]: > 100 µM (inactive) | GI50 [18]: 7.87 µM (inactive) | GI50 [19]: 0.75 µM (active) | GI50 [20]: 17.1 µM (inactive) | GI50 [21]: 9.27 µM (inactive) | GI50 [22]: 51.8 µM (inactive) | GI50 [23]: 34.1 µM (inactive) | GI50 [24]: > 53.8 µM (inactive) | GI50 [25]: 17.7 µM (inactive) | GI50 [26]: 3.29 µM (inactive) | GI50 [27]: 1.22 µM (inactive) | GI50 [28]: > 53.1 µM (inactive) | GI50 [29]: > 100 µM (inactive) | GI50 [30]: 7.26 µM (inactive) | GI50 [31]: 1.6 µM (inactive) | GI50 [32]: 8.91 µM (inactive) | GI50 [33]: > 100 µM (inactive) | GI50 [34]: 22.9 µM (inactive) | GI50 [35]: 39.6 µM (inactive) | GI50 [36]: > 30.6 µM (inactive) | GI50 [37]: 99.8 µM (inactive) | GI50 [38]: 14.4 µM (inactive) | GI50 [39]: 32.7 µM (inactive) | GI50 [40]: > 100 µM (inactive) | GI50 [41]: 9.75 µM (inactive) | GI50 [42]: > 55.7 µM (inactive) | GI50 [43]: 17.6 µM (inactive) | GI50 [44]: > 55.2 µM (inactive) | GI50 [45]: > 64.3 µM (inactive) | GI50 [46]: 4.86 µM (inactive) | GI50 [47]: > 100 µM (inactive) | GI50 [48]: 9.98 µM (inactive) | GI50 [49]: 11.5 µM (inactive) | GI50 [50]: > 57 µM (inactive) | GI50 [51]: > 85.9 µM (inactive) | GI50 [52]: 38.3 µM (inactive) | GI50 [53]: 18.7 µM (inactive) | GI50 [54]: 2.88 µM (inactive) | GI50 [55]: 4.29 µM (inactive) | GI50 [56]: 6.11 µM (inactive) | GI50 [57]: > 100 µM (inactive)

CSC(=S)N(C)C [CYSTOGON]
GI50 [1]: > 100 µM (inactive) | GI50 [2]: > 100 µM (inactive) | GI50 [3]: > 100 µM (inactive) | GI50 [5]: > 100 µM (inactive) | GI50 [6]: > 100 µM (inactive) | GI50 [7]: > 100 µM (inactive) | GI50 [8]: > 100 µM (inactive) | GI50 [9]: > 100 µM (inactive) | GI50 [10]: > 100 µM (inactive) | GI50 [11]: > 100 µM (inactive) | GI50 [12]: > 100 µM | GI50 [13]: > 100 µM (inactive) | GI50 [14]: > 100 µM (inactive) | GI50 [15]: > 100 µM (inactive) | GI50 [16]: > 100 µM (inactive) | GI50 [17]: > 100 µM (inactive) | GI50 [18]: > 100 µM (inactive) | GI50 [19]: > 100 µM (inactive) | GI50 [20]: > 100 µM (inactive) | GI50 [21]: > 100 µM (inactive) | GI50 [22]: > 100 µM (inactive) | GI50 [23]: > 100 µM (inactive) | GI50 [24]: > 100 µM (inactive) | GI50 [25]: > 100 µM (inactive) | GI50 [26]: > 100 µM (inactive) | GI50 [27]: > 100 µM (inactive) | GI50 [28]: > 100 µM (inactive) | GI50 [29]: > 100 µM (inactive) | GI50 [30]: > 100 µM (inactive) | GI50 [31]: > 100 µM (inactive) | GI50 [32]: > 100 µM (inactive) | GI50 [33]: > 100 µM (inactive) | GI50 [34]: > 100 µM (inactive) | GI50 [36]: > 100 µM (inactive) | GI50 [37]: > 100 µM (inactive) | GI50 [39]: > 100 µM (inactive) | GI50 [40]: > 100 µM (inactive) | GI50 [41]: > 100 µM (inactive) | GI50 [42]: > 100 µM (inactive) | GI50 [43]: > 100 µM (inactive) | GI50 [44]: > 100 µM (inactive) | GI50 [45]: > 100 µM (inactive) | GI50 [46]: > 100 µM (inactive) | GI50 [47]: > 100 µM (inactive) | GI50 [48]: > 100 µM (inactive) | GI50 [49]: > 100 µM (inactive) | GI50 [50]: 80 µM (inactive) | GI50 [58]: > 100 µM (inactive) | GI50 [51]: > 100 µM (inactive) | GI50 [52]: > 100 µM (inactive) | GI50 [53]: > 100 µM (inactive) | GI50 [54]: > 100 µM (inactive) | GI50 [55]: > 100 µM (inactive) | GI50 [56]: > 100 µM (inactive) | GI50 [57]: > 100 µM (inactive)
